Measurements reported in US8263607B2, “1-substituted tetrahydroisoquinoline compound” (Astellas Pharma Inc., priority 2007, dated 2012).

Experiments:
[1] = tested on: formalin-induced pain behaviors; test: Nociceptive pain model (mouse formalin test); assay type: in vivo, mice (ddY, male); conditions: 100 mg/kg oral, 30 min before formalin; pain behaviors 15 to 25 min after formalin, vs vehicle
Method: A mouse formalin test was carried out by a modification of the method as described in the literature [Murakami et al., Eur. J. Pharmacol. 419: 175-181 (2001)]. When 20 μL of 2.0% formalin was subcutaneously administered to the paw pads of mice (ddY, male, 5 weeks old), pain behaviors (limb withdrawal and licking behaviors) were induced in the treated animal limbs. From 15 to 25 minutes after the administration of formalin, the time taken for the onset of pain behaviors was measured to thereby evaluate the inhibitory action of the test compound on pain behaviors of animals. The test compound was orally given 30 minutes prior to the administration of formalin. […] Inhibition rate(%)=100−(mean onset time of pain behaviors in test compound-treated group)/(mean onset time of pain behaviors in vehicle-treated group)×100

[2] = tested on: loperamide-induced bead transit delay; test: Spastic constipation model (loperamide-induced colorectal bead transit delay test in mice); assay type: in vivo, mouse (ddY, male); conditions: 3 mg/kg oral, concurrently with loperamide 0.3 mg/kg s.c.; bead excretion time
Method: A 3-mm diameter glass bead is deeply inserted at a depth of 2 cm into the anus of the mouse (ddY, male, 6 weeks old), and the time taken for excretion of the bead is measured. […] With improving effects on the loperamide-induced bead transit delay, a bowel movement-improving action of the test compound on spastic constipation was evaluated. The test compound was orally administered concurrently with administration of loperamide (30 minutes before the insertion of the bead). The assessment of the test compound was made from calculation of an improvement rate in the bead excretion time of the test compound-treated/loperamide-treated group, by taking the bead excretion time of the non-test compound treated/non-loperamide treated (vehicle-treated/vehicle-treated) group as 100%, and by taking the bead excretion time of the non-test compound treated/loperamide-treated (vehicle-treated/loperamide-treated) group as 0%.

[3] = tested on: mechanical allodynia in L5/L6 spinal nerve-ligated rats; test: Neuropathic pain model (antiallodynic effects in L5/L6 spinal nerve-ligated rats, von Frey hair test); assay type: in vivo, rats (SD, male); conditions: 30 to 60 min before measurement, response threshold, ipsilateral 0% / contralateral 100% of vehicle group
Method: The antiallodynic effects of the compounds of the present invention were confirmed by assessing the analgesic action in L5/L6 spinal nerve-ligated rats. The assessment was carried out by the method of Kim and Chung (Pain 50, 355-363, 1992) with some modifications.
Under pentobarbital anesthesia, the left L5 and L6 spinal nerves of male SD rats (5-6 weeks old) were tightly ligated with silk thread. For the assessment of analgesic action, the von Frey hair test was adopted. That is, the animal's hind paw pad was pricked with hair and the lowest strength of hair for limb withdrawal response was designated as a response threshold (log gram) to mechanical stimulation. […] On the day before the assessment of the test compound, the response threshold before administration of the test compound was measured. The animals were divided into 4 to 5 groups such that mean value differences of response thresholds between groups before administration of the test compound and within-group variation become small. In the assessment of the test compound, the response threshold after administration of the test compound was measured. The test compound was orally administered 30 to 60 minutes before the measurement of the response threshold. […] Recovery rate(%)={(mean of response threshold in test compound-treated group)−(mean of response threshold of ipsilateral paw in vehicle-treated group)}/{(mean of response threshold of contralateral paw in the vehicle-treated group)−(mean of response threshold of ipsilateral paw in the vehicle-treated group)}×100

[4] = tested on: CRD-induced abdominal flexion reflex behaviors; test: Abdominal pain model (CRD-induced abdominal pain in rats); assay type: in vivo, rat (Wistar, male); conditions: 10 mg/kg oral, 30 min before distension; abdominal flexion reflex behaviors at internal pressure of 45 mmHg
Method: Improving effects of the compounds of the present invention on digestive tract pain were confirmed by assay of CRD-induced abdominal pain in rats. The rat CRD-induced abdominal pain assay was carried out by a modification of the method described in the literature [Neurogastroenterol. Motil. 15: 363-369 (2003)]. When stimulation of constant internal pressure is applied to the colorectum of an animal by inflation of a 6-cm long balloon inserted into the anus of the rat (Wistar, male, 250-350 g), abdominal flexion reflex behaviors are induced due to abdominal pain. A frequency of reflex behaviors occurring during distension stimulation of 5 minutes was counted to estimate an abdominal pain-inhibitory action of the test compound. The test compound was orally administered 30 minutes before the initiation of distension stimulation. Estimation of the test compound was made by calculating an inhibition rate (%) of abdominal flexion reflex behaviors on the vehicle-treated group.

[5] = tested on: mechanical allodynia in L5/L6 spinal nerve-ligated rats; conditions: known; cited from earlier work

Structure (SMILES)	Inhibition rate [1] [%]	Inhibition rate [2] [%]	Recovery rate (%) (dose) ([3]; 10 mg/kg oral)	Inhibition rate [4] [%]	Recovery rate (%) (dose) ([3]; 30 mg/kg oral)	recovery of mechanical allodynia with treatment of morphine [5]
CCc1ccc2c(c1)[C@H](COC)N(C(=O)CNCC1(O)CCCCC1)CC2 [Example 436]	55	59	156	56		
COc1ccc2c(c1)CCN(C(=O)CNCC1(O)CCCCC1)[C@H]2C(C)C [Example 415]		88		60		
COc1cccc2c1[C@H](c1ccccc1)N(C(=O)CNC[C@@H](C)O)CC2 [Example 575]	77		83			
COC[C@@H](O)CNCC(=O)N1CCc2ccccc2[C@@H]1C1CCCCC1 [Example 157]	52	40		59	97	
COC[C@@H](O)CNCC(=O)N1CCc2ccccc2[C@@H]1Cc1ccccc1C(F)(F)F [Example 433]	60	73	80	43		
COc1cccc2c1[C@H](c1ccccc1)N(C(=O)CNC[C@@H](C)O)CC2 [Example 435]		67		46		
O=C(CNCC1(O)CCCCC1)N1CCc2ccccc2[C@@H]1C1CCCCC1 [Example 1, 1-[({2-[(1S)-1-cyclohexyl-3,4-dihydroisoquinolin-2(1H)-yl]-2-oxoethyl}amino)methyl]cyclohexanol]	52				95	
CN1CC[C@]23c4c5ccc(O)c4O[C@H]2[C@@H](O)C=C[C@H]3[C@H]1C5 [morphine]						only a partial recovery
